Measurements as given in PubChem BioAssay (NCI).
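Values below derive from 48-hour exposures of cells grown in 96-well plates, with endpoints linearly interpolated between the two concentrations bracketing the appropriate inhibition level. GI50 marks 50% less growth. TGI denotes the concentration required for complete inhibition of growth.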

Tests used:
Assay in all cases: inhibition of tumour cell growth, NCI panel, 48 h
DU-145 prostate = tested on: DU-145 prostate
SK-MEL-5 melanoma = tested on: SK-MEL-5 melanoma
HCC-2998 colon = tested on: HCC-2998 colon
NCI-H23 lung = tested on: NCI-H23 lung
MDA-MB-231 breast = tested on: MDA-MB-231 breast
OVCAR-8 ovarian = tested on: OVCAR-8 ovarian
HL-60(TB) leukemia = tested on: HL-60(TB) leukemia
HOP-62 NSCLC = tested on: HOP-62 NSCLC
T-47D breast = tested on: T-47D breast
NCI-H460 lung = tested on: NCI-H460 lung
SNB-19 CNS = tested on: SNB-19 CNS
A498 renal = tested on: A498 renal
UO-31 renal = tested on: UO-31 renal
OVCAR-4 ovarian = tested on: OVCAR-4 ovarian
K-562 leukemia = tested on: K-562 leukemia
UACC-62 melanoma = tested on: UACC-62 melanoma
MOLT-4 leukemia = tested on: MOLT-4 leukemia
SN12C renal = tested on: SN12C renal
A549 NSCLC = tested on: A549 NSCLC
786-0 renal = tested on: 786-0 renal
KM12 colon = tested on: KM12 colon
NCI-H522 lung = tested on: NCI-H522 lung
MCF7 breast = tested on: MCF7 breast
MDA-MB-435 = tested on: MDA-MB-435
OVCAR-5 ovarian = tested on: OVCAR-5 ovarian
UACC-257 melanoma = tested on: UACC-257 melanoma
HCT-15 colon = tested on: HCT-15 colon
HOP-92 NSCLC = tested on: HOP-92 NSCLC
PC-3 prostate = tested on: PC-3 prostate
M14 melanoma = tested on: M14 melanoma
COLO 205 colon = tested on: COLO 205 colon
SK-MEL-2 melanoma = tested on: SK-MEL-2 melanoma
SF-268 CNS = tested on: SF-268 CNS
TK-10 renal = tested on: TK-10 renal
NCI/ADR-RES ovarian = tested on: NCI/ADR-RES ovarian
RXF 393 renal = tested on: RXF 393 renal
CCRF-CEM leukemia = tested on: CCRF-CEM leukemia
SK-OV-3 ovarian = tested on: SK-OV-3 ovarian
HT29 colon = tested on: HT29 colon
LOX IMVI melanoma = tested on: LOX IMVI melanoma
SNB-75 CNS = tested on: SNB-75 CNS
ACHN renal = tested on: ACHN renal
SR leukemia = tested on: SR leukemia
EKVX NSCLC = tested on: EKVX NSCLC
HCT-116 colon = tested on: HCT-116 colon
U251 CNS = tested on: U251 CNS
RPMI-8226 leukemia = tested on: RPMI-8226 leukemia
SF-539 CNS = tested on: SF-539 CNS
SK-MEL-28 melanoma = tested on: SK-MEL-28 melanoma
SW-620 colon = tested on: SW-620 colon
BT-549 breast = tested on: BT-549 breast
MALME-3M melanoma = tested on: MALME-3M melanoma
HS 578T breast = tested on: HS 578T breast
IGROV1 ovarian = tested on: IGROV1 ovarian
NCI-H226 lung = tested on: NCI-H226 lung
SF-295 CNS = tested on: SF-295 CNS
CAKI-1 renal = tested on: CAKI-1 renal

With `NC(=S)n1c(=O)n(-c2cccc(C(F)(F)F)c2)c(=O)c2cc(-c3ccc(F)cc3F)ccc21` the GI50 (DU-145 prostate) was 2740 nM, the TGI (DU-145 prostate) was 13700 nM and the GI50 (SK-MEL-5 melanoma) was 333 nM. It also gave a TGI (SK-MEL-5 melanoma) of 1140 nM, a GI50 (HCC-2998 colon) of 2960 nM and a TGI (HCC-2998 colon) of 9270 nM. For the same compound, the GI50 (NCI-H23 lung) was 1180 nM, the TGI (NCI-H23 lung) was 5100 nM and the GI50 (MDA-MB-231 breast) was 1820 nM. It also gave a TGI (MDA-MB-231 breast) of 5950 nM, a GI50 (OVCAR-8 ovarian) of 1290 nM and a TGI (OVCAR-8 ovarian) of 6480 nM. For the same compound, the GI50 (HL-60(TB) leukemia) was 1600 nM, the TGI (HL-60(TB) leukemia) was 7260 nM and the GI50 (HOP-62 NSCLC) was 1830 nM. The TGI (HOP-62 NSCLC) was 4440 nM, the GI50 (T-47D breast) was 1540 nM and the TGI (T-47D breast) was 6090 nM. It also gave a GI50 (NCI-H460 lung) of 763 nM, a TGI (NCI-H460 lung) of 5410 nM and a GI50 (SNB-19 CNS) of 1290 nM. It also gave a TGI (SNB-19 CNS) of 22900 nM, a GI50 (A498 renal) of 341 nM and a TGI (A498 renal) of 1220 nM. For the same compound, the GI50 (UO-31 renal) was 2300 nM, the TGI (UO-31 renal) was 8580 nM and the GI50 (OVCAR-4 ovarian) was 2390 nM. For the same compound, the TGI (OVCAR-4 ovarian) was 22500 nM, the GI50 (K-562 leukemia) was 725 nM and the TGI (K-562 leukemia) was 14100 nM. The GI50 (UACC-62 melanoma) was 379 nM, the TGI (UACC-62 melanoma) was 1610 nM and the GI50 (MOLT-4 leukemia) was 1660 nM. For the same compound, the TGI (MOLT-4 leukemia) was 4840 nM, the GI50 (SN12C renal) was 1260 nM and the TGI (SN12C renal) was 6300 nM. It also gave a GI50 (A549 NSCLC) of 2730 nM, a TGI (A549 NSCLC) of 11300 nM and a GI50 (786-0 renal) of 2000 nM. The TGI (786-0 renal) was 4390 nM, the GI50 (KM12 colon) was 2260 nM and the TGI (KM12 colon) was 6210 nM. It also gave a GI50 (NCI-H522 lung) of 428 nM, a TGI (NCI-H522 lung) of 2870 nM and a GI50 (MCF7 breast) of 1700 nM. For the same compound, the TGI (MCF7 breast) was 8180 nM, the GI50 (MDA-MB-435) was 1560 nM and the TGI (MDA-MB-435) was 5460 nM. It also gave a GI50 (OVCAR-5 ovarian) of 3540 nM, a TGI (OVCAR-5 ovarian) of 17500 nM and a GI50 (UACC-257 melanoma) of 1070 nM. For the same compound, the TGI (UACC-257 melanoma) was 4000 nM, the GI50 (HCT-15 colon) was 769 nM and the TGI (HCT-15 colon) was 2690 nM. It also gave a GI50 (HOP-92 NSCLC) of 191 nM, a TGI (HOP-92 NSCLC) of 741 nM and a GI50 (PC-3 prostate) of 1050 nM. The TGI (PC-3 prostate) was 4110 nM, the GI50 (M14 melanoma) was 1600 nM and the TGI (M14 melanoma) was 4230 nM. It also gave a GI50 (COLO 205 colon) of 1760 nM, a TGI (COLO 205 colon) of 3360 nM and a GI50 (SK-MEL-2 melanoma) of 590 nM. It also gave a TGI (SK-MEL-2 melanoma) of 2350 nM, a GI50 (SF-268 CNS) of 2000 nM and a TGI (SF-268 CNS) of 11300 nM. It also gave a GI50 (TK-10 renal) of 4050 nM, a TGI (TK-10 renal) of 8470 nM and a GI50 (NCI/ADR-RES ovarian) of 1970 nM. For the same compound, the TGI (NCI/ADR-RES ovarian) was 9410 nM, the GI50 (RXF 393 renal) was 1220 nM and the TGI (RXF 393 renal) was 3090 nM. The GI50 (CCRF-CEM leukemia) was 2270 nM, the TGI (CCRF-CEM leukemia) was 11500 nM and the GI50 (SK-OV-3 ovarian) was 1210 nM. It also gave a TGI (SK-OV-3 ovarian) of 3600 nM, a GI50 (HT29 colon) of 3340 nM and a TGI (HT29 colon) of 11900 nM. It also gave a GI50 (LOX IMVI melanoma) of 1540 nM, a TGI (LOX IMVI melanoma) of 3170 nM and a GI50 (SNB-75 CNS) of 1500 nM. The TGI (SNB-75 CNS) was 5170 nM, the GI50 (ACHN renal) was 2270 nM and the TGI (ACHN renal) was 10500 nM. For the same compound, the GI50 (SR leukemia) was 984 nM, the TGI (SR leukemia) was 5150 nM and the GI50 (EKVX NSCLC) was 2390 nM. The TGI (EKVX NSCLC) was 7950 nM, the GI50 (HCT-116 colon) was 953 nM and the TGI (HCT-116 colon) was 2300 nM. For the same compound, the GI50 (U251 CNS) was 1740 nM, the TGI (U251 CNS) was 9310 nM and the GI50 (RPMI-8226 leukemia) was 575 nM. The TGI (RPMI-8226 leukemia) was 3110 nM, the GI50 (SF-539 CNS) was 1920 nM and the TGI (SF-539 CNS) was 8790 nM. For the same compound, the GI50 (SK-MEL-28 melanoma) was 1430 nM, the TGI (SK-MEL-28 melanoma) was 6240 nM and the GI50 (SW-620 colon) was 1600 nM. The TGI (SW-620 colon) was 4200 nM, the GI50 (BT-549 breast) was 1180 nM and the TGI (BT-549 breast) was 2620 nM. It also gave a GI50 (MALME-3M melanoma) of 1510 nM, a TGI (MALME-3M melanoma) of 4950 nM and a GI50 (HS 578T breast) of 1110 nM. For the same compound, the TGI (HS 578T breast) was 4450 nM, the GI50 (IGROV1 ovarian) was 1990 nM and the TGI (IGROV1 ovarian) was 13000 nM. The GI50 (NCI-H226 lung) was 1420 nM, the TGI (NCI-H226 lung) was 3890 nM and the GI50 (SF-295 CNS) was 1750 nM. The TGI (SF-295 CNS) was 3620 nM, the GI50 (CAKI-1 renal) was 1610 nM and the TGI (CAKI-1 renal) was 5860 nM.
